We go through 32 molecules from patent US9511058B2, “Methods for using carboxamide, sulfonamide and amine compounds” (Rigel Pharmaceuticals, Inc., priority 2010, dated 2016).

Molecules are shown by their SMILES.

For one test, the target named is AMPK. Kind of test: AMPK activation, enzyme-linked immunosorbent assay. The class given is biochemical. The conditions noted are these: compounds of Table 1 (Table 6).
In the case of `O=C(NC1CCN(Cc2ccncc2)CC1)c1cc2ccc(OC3CCN(c4ccc(C(F)(F)F)cc4)CC3)cc2o1` [1-87, N-(1-(pyridin-4-ylmethyl)piperidin-4-yl)-6-(1-(4-(trifluoromethyl)phenyl)piperidin-4-yloxy)benzofuran-2-carboxamide], the EC50 was less than 100 nM.

Take `O=C(NC1CCN(Cc2ccncc2)CC1)c1cc2cc(OC3CCN(c4ccc(C(F)(F)F)cc4)CC3)ccc2o1` [1-76, N-(1-(pyridin-4-ylmethyl)piperidin-4-yl)-5-(1-(4-(trifluoromethyl)phenyl)piperidin-4-yloxy)benzofuran-2-carboxamide]: the EC50 fell in the range of 100 to 500 nM.

The molecule `O=C(N[C@H]1CCNC1)c1cc2cc(OC3CCN(Cc4ccc(Cl)cc4)CC3)ccc2o1` [1-128, (S)-5-(1-(4-chlorobenzyl)piperidin-4-yloxy)-N-(pyrrolidin-3-yl)benzofuran-2-carboxamide] gave a concentration for a half-maximal effect (EC50) greater than 10000 nM.

For the molecule `O=C(N[C@@H]1CCN(Cc2ccccn2)C1)c1cc2cc(OC3CCN(c4ccc(C(F)(F)F)cc4)CC3)ccc2o1` [1-124, (R)-N-(1-(pyridin-2-ylmethyl)pyrrolidin-3-yl)-5-(1-(4-(trifluoromethyl)phenyl)piperidin-4-yloxy)benzofuran-2-carboxamide], the EC50 lay in the range of 1000 to 5000 nM.

In turn, `N#Cc1cccc(CN2CCC(NS(=O)(=O)c3ccc(OC4CCN(c5ccc(C(F)(F)F)cc5)CC4)nc3)CC2)c1` [1-57, N-(1-(3-cyanobenzyl)piperidin-4-yl)-6-(1-(4-(trifluoromethyl)phenyl)piperidin-4-yloxy)pyridine-3-sulfonamide] yielded an EC50 of 500 to 1000 nM.

For `O=C(NC1CCN(Cc2ccncc2)CC1)c1cc2cc(OC3CCN(c4ccc(C(F)(F)F)cc4)CC3)ccc2s1` [1-138, N-(1-(pyridin-4-ylmethyl)piperidin-4-yl)-5-(1-(4-(trifluoromethyl)phenyl)piperidin-4-yloxy)benzo[b]thiophene-2-carboxamide], the EC50 was less than 100 nM.

For `O=C(NC1CCN(S(=O)(=O)c2cccnc2)CC1)c1cc2ccc(OC3CCN(c4ccc(C(F)(F)F)cc4)CC3)cc2o1` [1-106, N-(1-(pyridin-3-ylsulfonyl)piperidin-4-yl)-6-(1-(4-(trifluoromethyl)phenyl)piperidin-4-yloxy)benzofuran-2-carboxamide], the EC50 was in the range of 100 to 500 nM.

Molecule `CC(C)(C)OC(=O)N1CC[C@H](NC(=O)c2cc3cc(OC4CCN(Cc5ccc(Cl)cc5)CC4)ccc3o2)C1` [1-127, (S)-tert-butyl 3-(5-(1-(4-chlorobenzyl)piperidin-4-yloxy)benzofuran-2-carboxamido)pyrrolidine-1-carboxylate] returned an EC50 of 1000 to 5000 nM.

In the case of `CC(C)(C)OC(=O)N1CCC(NC(=O)c2cc3ccc(OC4CCN(c5ccc(C(F)(F)F)cc5)CC4)cc3o2)CC1` [1-82, tert-butyl 4-(6-(1-(4-(trifluoromethyl)phenyl)piperidin-4-yloxy)benzofuran-2-carboxamido)piperidine-1-carboxylate], the EC50 lay within 100 to 500 nM.

For the molecule `N#Cc1ccc(CN2CC(NC(=O)c3ccc(OC4CCN(c5ccc(C(F)(F)F)cc5)CC4)cn3)C2)cc1` [1-41, N-(1-(4-cyanobenzyl)azetidin-3-yl)-5-(1-(4 (trifluoromethyl)phenyl)piperidin-4-yloxy)picolinamide], the EC50 was in the range of 100 to 500 nM.

In turn, `COC(=O)c1ccc(CN2CCC(NC(=O)c3ccc(OC4CCN(c5ccc(C(F)(F)F)cc5)CC4)cn3)CC2)cc1` [1-8, methyl 4-((4-(5-(1-(4-(trifluoromethyl)phenyl)piperidin-4-yloxy)picolinamido)piperidin-1-yl)methyl)benzoate] came in with an EC50 of less than 100 nM.

With `N#Cc1ccc(CN2CCC(NC(=O)c3cc4ccc(OC5CCN(c6ccc(OC(F)(F)F)cc6)CC5)cc4o3)CC2)cc1` [1-89, N-(1-(4-cyanobenzyl)piperidin-4-yl)-6-(1-(4-(trifluoromethoxy)phenyl)piperidin-4-yloxy)benzofuran-2-carboxamide], the EC50 was less than 100 nM.

With `N#Cc1ccc(CN2CCC(Oc3ccc(S(=O)(=O)NC4CCN(Cc5ccncc5)CC4)cn3)CC2)cc1` [1-53, 6-(1-(4-cyanobenzyl)piperidin-4-yloxy)-N-(1-(pyridin-4-ylmethyl)piperidin-4-yl)pyridine-3-sulfonamide], the EC50 was in the range of 100 to 500 nM.

The test is the same for the next values; noted with them: compounds of Table 2 (Table 7).
In turn, `O=C(NC1CCN(Cc2ccccc2)CC1)c1ccc2[nH]c3c(c2c1)CN(S(=O)(=O)c1ccc(C(F)(F)F)cc1)CC3` [2-19, N-(1-benzylpiperidin-4-yl)-2-(4-(trifluoromethyl)phenylsulfonyl)-2,3,4,5 - tetrahydro-1H-pyrido[4,3-b]indole-8-carboxamide] registered an EC50 greater than 100000 nM.

In turn, `O=C(NC1CCN(C(=O)c2ccncc2)CC1)c1ccc2[nH]c3c(c2c1)CN(Cc1ccc(C(F)(F)F)cc1)CC3` [2-51, N-(1-isonicotinoyl-piperidin-4-yl)-2-(4-(trifluoromethyl)benzyl)-2,3,4,5-tetrahydro-1H-pyrido [4,3-b]indole-8-carboxamide] had a concentration for a half-maximal effect (EC50) of 500 to 1000 nM.

The molecule `N#Cc1ccc(CN2CCC(NC(=O)c3ccc4[nH]c5c(c4c3)CN(S(=O)(=O)c3ccc(C(F)(F)F)cc3)CC5)CC2)cc1` [2-24, N-(1-(4-cyanobenzyl)piperidin-4-yl)-2-(4-(trifluoromethyl)phenylsulfonyl)-2,3,4,5-tetrahydro-1H-pyrido [4,3-b]indole-8-carboxamide] registered a half-maximal effective concentration (EC50) of 1000 to 5000 nM.

Take `CC(C)(C)OC(=O)N1CCC(NC(=O)c2ccc3[nH]c4c(c3c2)CN(Cc2ccc(C(F)(F)F)cc2)CC4)CC1` [2-6, tert-butyl 4-(2-(4-(trifluoromethyl)benzyl)-2,3,4,5-tetrahydro-1H-pyrido[4,3-b]indole-8-carboxamido) piperidine-1-carboxylate]: the EC50 is 500 to 1000 nM.

`O=C(NC1CCN(Cc2cccnc2)CC1)c1ccc2[nH]c3c(c2c1)CN(c1ccc(F)cc1)CC3` [2-36, 2-(4-fluorophenyl)-N-(1-(pyridin-3-ylmethyl)piperidin-4-yl)-2,3,4,5-tetrahydro-1H-pyrido [4,3-b]indole-8-carboxamide] gave an EC50 greater than 100000 nM.

Still in this test, the particulars now being: compounds of Table 3 (Table 8).
Consider `N#Cc1ccc(C(=O)N2CCC(NC(=O)c3nc4ccc(OC5CCN(c6ccc(C(F)(F)F)cc6)CC5)cc4o3)CC2)cc1` [3-6, N-(1-(4-cyanobenzoyl)piperidin-4-yl)-6-(1-(4-(trifluoromethyl)phenyl)piperidin-4-yloxy)benzo[d]oxazole-2-carboxamide], for which the EC50 was less than 100 nM.

Take `O=C(NC1CCN(Cc2ccc(C(F)(F)F)cc2)CC1)c1ccc2c(c1)CN(Cc1ccc(F)cc1)CC2` [3-36, 2-(4-fluorobenzyl)-N-(1-(4-(trifluoromethyl)benzyl)piperidin-4-yl)-1,2,3,4-tetrahydroisoquinoline-7-carboxamide]: the EC50 lay within 100 to 1000 nM.

`O=C(NC1CCNCC1)c1nc2ccc(OC3CCN(c4ccc(C(F)(F)F)cc4)CC3)cc2o1` [3-5, N-(piperidin-4-yl)-6-(1-(4-(trifluoromethyl)phenyl)piperidin-4-yloxy)benzo[d]oxazole-2-carboxamide] came in with an EC50 of 10000 to 100000 nM.

In the case of `N#Cc1ccc(CN2CCC(NC(=O)c3cnc(OC4CCN(c5ccc(C#N)cc5)CC4)s3)CC2)cc1` [3-24, N-(1-(4-cyanobenzyl)piperidin-4-yl)-2-(1-(4-cyanophenyl)piperidin-4-yloxy)thiazole-5-carboxamide], the EC50 was less than 100 nM.

Staying with this test, now noted: compounds of Table 5 (Table 10).
Molecule `Cn1cncc1CN1CCC(Oc2ccc(C(=O)NC3CCN(Cc4ccccc4)CC3)cc2Cl)CC1` [5-5, N-(1-benzylpiperidin-4-yl)-3-chloro-4-(1-((1-methyl-1H-imidazol-5-yl)methyl)piperidin-4-yloxy)benzamide] gave an EC50 of 50000 to 100000 nM.

`O=C(NC1CCN(Cc2ccccc2)CC1)c1ccc(OC2CCN(c3ccc(C(F)(F)F)cc3)CC2)c(F)c1` [5-23, N-(1-benzylpiperidin-4-yl)-3-fluoro-4-(1-(4-(trifluoromethyl)phenyl)piperidin-4-yloxy)benzamide] returned an EC50 of less than 1000 nM.

With `O=C(c1ccc(OC2CCN(Cc3ccccc3)CC2)cc1)N1CCN(c2ccccc2)CC1` [5-103, (4-(1-benzylpiperidin-4-yloxy)phenyl)(4-phenylpiperazin-1-yl)methanone], the EC50 is 20000 to 50000 nM.

For `N#Cc1ccc(CN2CCC(Oc3ccc(C(=O)NC4CCN(Cc5ccccn5)CC4)cc3)CC2)cc1` [5-85, 4-(1-(4-cyanobenzyl)piperidin-4-yloxy)-N-(1-(pyridin-2-ylmethyl)piperidin-4-yl)benzamide], the EC50 is less than 1000 nM.

`N#Cc1ccc(N2CCC(Oc3ccc(C(=O)NC4CCN(Cc5ccc(Cl)cc5)CC4)cc3F)CC2)cc1` [5-81, N-(1-(4-chlorobenzyl)piperidin-4-yl)-4-(1-(4-cyanophenyl)piperidin-4-yloxy)-3-fluorobenzamide]: the EC50 is less than 1000 nM.

In the case of `O=C(NC1CCN(Cc2ccccc2)CC1)c1ccc(OC2CCN(Cc3ccc(Cl)cc3)CC2)c(Cl)c1` [5-65, N-(1-benzylpiperidin-4-yl)-3-chloro-4-(1-(4-chlorobenzyl)piperidin-4-yloxy)benzamide], the EC50 was less than 1000 nM.

On to `N#Cc1ccc(N2CCC(Oc3ccc(C(=O)NC4CCN(Cc5ccncc5)CC4)cc3F)CC2)cc1` [5-44, 4-(1-(4-cyanophenyl)piperidin-4-yloxy)-3-fluoro-N-(1-(pyridin-4-ylmethyl)piperidin-4-yl)benzamide], for which the 50% effective concentration (EC50) is less than 1000 nM.

`Cn1cncc1CN1CCC(Oc2ccc(C(=O)NC3CCN(Cc4ccccc4)CC3)cc2)CC1` [5-4, N-(1-benzylpiperidin-4-yl)-4-(1-((1-methyl-1H-imidazol-5-yl)methyl)piperidin-4-yloxy)benzamide] showed an EC50 greater than 100000 nM.

In turn, `O=C(NC1CCN(Cc2ccccc2)CC1)c1ccc(OC2CCN(Cc3ccc(C(F)(F)F)cc3)CC2)c(F)c1` [5-55, N-(1-benzylpiperidin-4-yl)-3-fluoro-4-(1-(4-(trifluoromethyl)benzyl)piperidin-4-yloxy)benzamide] displayed an EC50 of less than 1000 nM.

Molecule `COc1ccc(CN2CCC(Oc3ccc(C(=O)N4CCN(C(=O)OC(C)(C)C)CC4)cc3)CC2)cc1` [5-96, tert-butyl 4-(4-(1-(4-methoxybenzyl)piperidin-4-yloxy)benzoyl)piperazine-1-carboxylate] registered an EC50 of 1000 to 10000 nM.
